Test results published in paper PMC9653409, “Generative deep learning enables the discovery of a potent and selective RIPK1 inhibitor” (Nature Communications, 2022).
Values joined by “and” are separate entries in the source; they are usually repeats but may differ in a detail not shown here. Equal entries are not always repeated. Where two headings read alike, the source gives them in different places.

Experiments:
RIPK1 = biological target: T1, RIPK1 (Homo sapiens, UniProt Q13546); assay: RIPK1 kinase assay, 33P-labeled ATP assay at Eurofins; assay type: biochemical
T1 sequence (Q13546 1-671): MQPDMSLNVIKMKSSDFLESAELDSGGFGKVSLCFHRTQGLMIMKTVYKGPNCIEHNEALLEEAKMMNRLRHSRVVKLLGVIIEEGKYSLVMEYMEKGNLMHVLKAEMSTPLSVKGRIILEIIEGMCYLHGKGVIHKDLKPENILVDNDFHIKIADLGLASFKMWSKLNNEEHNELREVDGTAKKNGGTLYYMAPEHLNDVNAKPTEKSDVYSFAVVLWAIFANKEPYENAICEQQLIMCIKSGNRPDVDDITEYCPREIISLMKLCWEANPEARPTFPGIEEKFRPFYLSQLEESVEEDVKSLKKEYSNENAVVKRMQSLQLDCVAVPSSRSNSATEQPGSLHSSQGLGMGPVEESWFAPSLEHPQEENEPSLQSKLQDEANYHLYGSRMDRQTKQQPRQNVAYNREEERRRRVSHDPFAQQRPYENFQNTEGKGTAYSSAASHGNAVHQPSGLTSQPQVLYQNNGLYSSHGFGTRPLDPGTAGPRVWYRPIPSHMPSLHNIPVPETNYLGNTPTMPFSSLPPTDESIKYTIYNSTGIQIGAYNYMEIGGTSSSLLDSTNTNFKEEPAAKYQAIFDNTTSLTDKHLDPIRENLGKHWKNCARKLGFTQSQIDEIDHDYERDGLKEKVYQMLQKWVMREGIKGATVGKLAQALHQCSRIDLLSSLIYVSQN
Description: (§1) In vitro kinase activity assays were conducted through the Kinase Profiling Services provided by Eurofins (Eurofins, France). The protocol for the RIPK1 assay is briefly described as follows (Protocols for other kinases are very similar and can be found in http://www.eurofins.com/pharmadiscovery). RIPK1 kinase was incubated with the test compound in assay buffer containing 8 mM MOPS (pH 7.0), 0.2 mM EDTA, 250 μM […], 10 mM magnesium acetate, and 10 μM [γ-33P]-ATP for 15 min at room temperature. The reaction was initiated by the addition of the Mg/ATP mixture. After incubation for 40 min at room temperature, and the reaction was stopped by the addition of 3% phosphoric acid. A 10 μL portion of the reaction mixture was then spotted onto a P30 filter mat and washed four times for 4 min in 0.425% phosphoric acid and once in methanol prior to drying and scintillation counting.

HT29 cells = assay: TSZ-induced HT29 cell necroptosis model (CCK8); assay type: cell-based; details: Homo sapiens, HT-29
Description: (§2) Cell necroptosis protection assays were performed in 96-well cell culture plates. Cells were plated in each well and cultured at 37 °C overnight. […] The cell survival rate was determined using a CCK8 cell viability assay kit and CLARIOstar (v5.61). […] All experiments were performed at least two times, and each EC50 value was expressed as mean ± standard deviation (SD).

J774A.1 cells = assay: TSZ-induced J774A.1 cell necroptosis model (CCK8); assay type: cell-based; details: Mus musculus, J774.A1
Description: as §2

TNFα-induced SIRS = TNFα-induced SIRS mouse model: survival; assay type: in vivo, C57BL/6 female mice
IL-6 [1] = assay: TNFα-induced SIRS mouse model: serum IL-6 (ELISA); assay type: in vivo, C57BL/6 female mice
Description: The body temperatures of the mice were continuously monitored until 6 h after TNFα administration. At 6 h after TNFα injection, four mice in each group were killed at random, and the serums, heart, liver, spleen, lung, and kidney tissues were collected for analysis.
(§3) In the TNFα-induced SIRS model, at 6 h after TNFα injection, four mice in each group were killed at random, and the serums were collected, the serum concentrations of IL-1β and IL-6 were measured using ELISA kits (Neobioscience Technology) according to manufacturer’s instructions. […] The supernatant was collected by sequential centrifugation at 500 × g for 10 min and 3000 × g for 10 min. The concentrations of cytokines TNFα, IL-6, and IL-1β were measured using ELISA kits (Neobioscience Technology).

IL-6 [2] = assay: DSS-induced IBD mouse model: IL-6 in cultured colon supernatant (ELISA); assay type: in vivo, C57BL/6 female mice
Description: DSS (3% w/v) was administered in drinking water ad libitum for 7 d (from day 0 to day 7). DSS solution was replaced three times on day 2, day 4, and day 6. […] Three mice in each group were killed at random on day 7, and distal colon tissues were collected for analysis. The mice weight and survival rate were recorded daily.
as §3

[3] = test system: kinases that have an inhibitory rate larger than 50%; assay: IC50 against kinases with inhibitory rate larger than 50%; assay type: biochemical, human; details: all except MLK3; read-out: IC50 against all other kinases followed up
Description: as §1

Compound: CC(C)C(=O)Nc1nc2cc(-c3ccc4c(c3)c(C(=O)NC(C)c3ccccc3)cn4C)ccn2n1 (centres unmarked) [RI-962]
- activity at 0.001 µM (RIPK1; 1 nM): 82.5%
- activity at 0.003 µM (RIPK1; 3 nM): 95%
- activity at 0.01 µM (RIPK1; 10 nM): 80.5%
- activity at 0.03 µM (RIPK1; 30 nM): 60.5%
- activity at 0.1 µM (RIPK1; 100 nM): 17.5%
- activity at 0.3 µM (RIPK1; 300 nM): -2%
- activity at 1 µM (RIPK1; 1000 nM): 11.5%
- activity at 3 µM (RIPK1; 3000 nM): 3.5%
- activity at 10 µM (RIPK1; 10 µM, read-out: Activity (%), RIPK1(h)): 0%
- activity at 10 µM (RIPK1; 10000 nM, read-out: Activity (%) Average): -3.5%
- IC50 (RIPK1; 33P-labeled ATP assay, read-out: IC50): 35 nM
- viability at 56 pM (HT29 cells; 0.000056 μM): 20.2%
- viability at 0.000169 µM (HT29 cells; 0.000169 μM): 21.7%
- viability at 0.000508 µM (HT29 cells; 0.000508 μM): 21.7%
- viability at 0.001524 µM (HT29 cells; 0.001524 μM): 23.4%
- viability at 0.004572 µM (HT29 cells; 0.004572 μM): 36.3%
- viability at 0.013717 µM (HT29 cells; 0.013717 μM): 78.8%
- viability at 0.041152 µM (HT29 cells; 0.041152 μM): 96.7%
- viability at 0.123457 µM (HT29 cells; 0.123457 μM): 109%
- viability at 0.37037 µM (HT29 cells; 0.370370 μM): 110%
- viability at 1.11111 µM (HT29 cells; 1.111111 μM): 107%
- viability at 3.33333 µM (HT29 cells; 3.333333 μM): 109%
- viability at 10 µM (HT29 cells; 10.000000 μM): 109%
- EC50 (HT29 cells; HT29 treated with TSZ, 24 h, read-out: EC50): 10 nM
- viability at 56 pM (J774A.1 cells; 0.000056 μM): 1.06%
- viability at 0.000169 µM (J774A.1 cells; 0.000169 μM): 1.51%
- viability at 0.000508 µM (J774A.1 cells; 0.000508 μM): 3.42%
- viability at 0.001524 µM (J774A.1 cells; 0.001524 μM): 11.4%
- viability at 0.004572 µM (J774A.1 cells; 0.004572 μM): 24.7%
- viability at 0.013717 µM (J774A.1 cells; 0.013717 μM): 48.7%
- viability at 0.041152 µM (J774A.1 cells; 0.041152 μM): 85.3%
- viability at 0.123457 µM (J774A.1 cells; 0.123457 μM): 88.9%
- viability at 0.37037 µM (J774A.1 cells; 0.370370 μM): 93%
- viability at 1.11111 µM (J774A.1 cells; 1.111111 μM): 98.3%
- viability at 3.33333 µM (J774A.1 cells; 3.333333 μM): 91.5%
- EC50 (J774A.1 cells; J774A.1 treated with TSZ, 24 h): 11.4 nM
- survival rate (TNFα-induced SIRS; 40 mg/kg i.p. 15 min before mTNFα 300 μg/kg i.v.): 90%
- 1 means death, 0 means survival (TNFα-induced SIRS; 40 mg/kg i.p., per animal): 1 and 0
- Time after mTNFα (TNFα-induced SIRS; 40 mg/kg i.p., per animal, time of death or end of observation): 24 h and 72 h
- concentration of IL-6 (IL-6 [1]; 40 mg/kg i.p., 6 h after TNFα): remarkably reduced
- IL-6 (IL-6 [1]; Figure 8d, individual replicates 1-4): 652.9 pg/mL and 1655 pg/mL and 2421 pg/mL and 1071 pg/mL
- content of IL-6 in cultured colonic tissue supernatants (IL-6 [2]; 40 mg/kg i.p., day 7): substantially reduced
- IL-6 (IL-6 [2]; Figure 9i, individual replicates 1-3): 994.1 pg/mL and 876.1 pg/mL and 967.8 pg/mL
- IC50 [3]: > 10000 nM
